Measured values as given in the supplement of paper PMC10307832.

Experiments:
Assay in all cases: relative viability (nuclei count vs DMSO), 5 days (fraction); higher = more cells survive
UMC-11 = test system: UMC-11
In short: (§1)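 Relative viability was taken as the ratio of nuclei in treated wells to nuclei in vehicle wells. Lung cancer cell lines in 1536-well plates received compounds by pin tool one day after seeding, either one drug alone or a fixed anchor-drug dose plus five library-drug doses (not always all listed) in √10 steps. Nuclei were counted on 4× images after 5 days of treatment, and values are medians of duplicate plates.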

NCI-H647 = test system: NCI-H647
In short: as §1

NCI-H358 = test system: NCI-H358
In short: as §1

ABC-1 = test system: ABC-1
In short: as §1

HCC-827 = test system: HCC-827
In short: as §1

NCI-H727 = test system: NCI-H727
In short: as §1

NCI-H2087 = test system: NCI-H2087
In short: as §1

NCI-H661 = test system: NCI-H661
In short: as §1

NCI-H1651 = test system: NCI-H1651
In short: as §1

NCI-H1975 = test system: NCI-H1975
In short: as §1

NCI-H1437 = test system: NCI-H1437
In short: as §1

EKVX = test system: EKVX
In short: as §1

NCI-H520 = test system: NCI-H520
In short: as §1

EPLC-272H = test system: EPLC-272H
In short: as §1

NCI-H1792 = test system: NCI-H1792
In short: as §1

201T = test system: 201T
In short: as §1

H3255 = test system: H3255
In short: as §1

COR-L 105 = test system: COR-L 105
In short: as §1

COR-L23 = test system: COR-L23
In short: as §1

HCC-44 = test system: HCC-44
In short: as §1

LCLC-103H = test system: LCLC-103H
In short: as §1

HCC-15 = test system: HCC-15
In short: as §1

## O=c1[nH]c2ccccc2n1C1CCN(CCCC(c2ccc(F)cc2)c2ccc(F)cc2)CC1 [Pimozide] + C[C@]1(O)C[C@@H](c2nc(-c3ccc4ccc(-c5ccccc5)nc4c3)c3c(N)nccn32)C1 [Linsitinib] (partner 1 µM)
UMC-11; first compound 0.08 µM
  relative viability: 1.02
UMC-11; first compound 0.253 µM
  relative viability: 0.977
UMC-11; first compound 0.8 µM
  relative viability: 1.05
UMC-11; first compound 2.53 µM
  relative viability: 1.07
UMC-11; first compound 8 µM
  relative viability: 1.09
NCI-H647; first compound 0.08 µM
  relative viability: 1.16
NCI-H647; first compound 0.253 µM
  relative viability: 1.06
NCI-H647; first compound 0.8 µM
  relative viability: 1.1
NCI-H647; first compound 2.53 µM
  relative viability: 1.17
NCI-H647; first compound 8 µM
  relative viability: 0.779
NCI-H358; first compound 0.08 µM
  relative viability: 0.739
NCI-H358; first compound 0.253 µM
  relative viability: 0.852
NCI-H358; first compound 0.8 µM
  relative viability: 0.649
NCI-H358; first compound 2.53 µM
  relative viability: 0.643
NCI-H358; first compound 8 µM
  relative viability: 0.693
ABC-1; first compound 0.08 µM
  relative viability: 0.825
ABC-1; first compound 0.253 µM
  relative viability: 0.747
ABC-1; first compound 0.8 µM
  relative viability: 0.788
ABC-1; first compound 2.53 µM
  relative viability: 0.629
ABC-1; first compound 8 µM
  relative viability: 0.491
HCC-827; first compound 0.253 µM
  relative viability: 0.986
HCC-827; first compound 0.8 µM
  relative viability: 0.915
HCC-827; first compound 2.53 µM
  relative viability: 0.944
HCC-827; first compound 8 µM
  relative viability: 0.939
NCI-H727; first compound 0.08 µM
  relative viability: 0.285
NCI-H727; first compound 0.253 µM
  relative viability: 0.337
NCI-H727; first compound 0.8 µM
  relative viability: 0.307
NCI-H727; first compound 2.53 µM
  relative viability: 0.281
NCI-H727; first compound 8 µM
  relative viability: 0.526
NCI-H2087; first compound 0.08 µM
  relative viability: 0.904
NCI-H2087; first compound 0.253 µM
  relative viability: 0.869
NCI-H2087; first compound 0.8 µM
  relative viability: 0.917
NCI-H2087; first compound 2.53 µM
  relative viability: 1.04
NCI-H2087; first compound 8 µM
  relative viability: 0.96
NCI-H661; first compound 0.08 µM
  relative viability: 0.659
NCI-H661; first compound 0.253 µM
  relative viability: 0.422
NCI-H661; first compound 0.8 µM
  relative viability: 0.557
NCI-H661; first compound 2.53 µM
  relative viability: 0.513
NCI-H661; first compound 8 µM
  relative viability: 0.536
NCI-H1651; first compound 0.08 µM
  relative viability: 0.897
NCI-H1651; first compound 0.253 µM
  relative viability: 1
NCI-H1651; first compound 0.8 µM
  relative viability: 0.922
NCI-H1651; first compound 2.53 µM
  relative viability: 0.97
NCI-H1651; first compound 8 µM
  relative viability: 0.951
NCI-H1975; first compound 0.08 µM
  relative viability: 0.95
NCI-H1975; first compound 0.253 µM
  relative viability: 1.04
NCI-H1975; first compound 0.8 µM
  relative viability: 0.964
NCI-H1975; first compound 2.53 µM
  relative viability: 0.926
NCI-H1975; first compound 8 µM
  relative viability: 0.741
NCI-H1437; first compound 0.08 µM
  relative viability: 1.09
NCI-H1437; first compound 0.253 µM
  relative viability: 1.11
NCI-H1437; first compound 0.8 µM
  relative viability: 0.932
NCI-H1437; first compound 2.53 µM
  relative viability: 0.899
NCI-H1437; first compound 8 µM
  relative viability: 0.893
EKVX; first compound 0.253 µM
  relative viability: 0.837
EKVX; first compound 0.8 µM
  relative viability: 0.901
EKVX; first compound 2.53 µM
  relative viability: 0.969
EKVX; first compound 8 µM
  relative viability: 0.953
NCI-H520; first compound 0.08 µM
  relative viability: 0.894
NCI-H520; first compound 0.253 µM
  relative viability: 1
NCI-H520; first compound 0.8 µM
  relative viability: 1.01
NCI-H520; first compound 2.53 µM
  relative viability: 0.995
NCI-H520; first compound 8 µM
  relative viability: 0.937
EPLC-272H; first compound 0.08 µM
  relative viability: 0.913
EPLC-272H; first compound 0.253 µM
  relative viability: 1.15
EPLC-272H; first compound 0.8 µM
  relative viability: 1.21
EPLC-272H; first compound 2.53 µM
  relative viability: 1.17
EPLC-272H; first compound 8 µM
  relative viability: 1.09
NCI-H1792; first compound 0.08 µM
  relative viability: 0.524
NCI-H1792; first compound 0.253 µM
  relative viability: 0.495
NCI-H1792; first compound 0.8 µM
  relative viability: 0.417
NCI-H1792; first compound 2.53 µM
  relative viability: 0.444
NCI-H1792; first compound 8 µM
  relative viability: 0.571
201T; first compound 0.08 µM
  relative viability: 1
201T; first compound 0.253 µM
  relative viability: 1.01
201T; first compound 0.8 µM
  relative viability: 1
201T; first compound 2.53 µM
  relative viability: 1.05
201T; first compound 8 µM
  relative viability: 0.884
H3255; first compound 0.253 µM
  relative viability: 0.905
H3255; first compound 0.8 µM
  relative viability: 0.96
H3255; first compound 2.53 µM
  relative viability: 0.959
H3255; first compound 8 µM
  relative viability: 0.903
COR-L 105; first compound 0.253 µM
  relative viability: 1.01
COR-L 105; first compound 0.8 µM
  relative viability: 0.795
COR-L 105; first compound 2.53 µM
  relative viability: 0.844
COR-L 105; first compound 8 µM
  relative viability: 0.562
COR-L23; first compound 0.08 µM
  relative viability: 0.956
COR-L23; first compound 0.253 µM
  relative viability: 0.76
COR-L23; first compound 0.8 µM
  relative viability: 0.832
COR-L23; first compound 2.53 µM
  relative viability: 0.887
COR-L23; first compound 8 µM
  relative viability: 0.84
HCC-44; first compound 0.08 µM
  relative viability: 0.635
HCC-44; first compound 0.253 µM
  relative viability: 0.703
HCC-44; first compound 0.8 µM
  relative viability: 0.64
HCC-44; first compound 2.53 µM
  relative viability: 0.653
HCC-44; first compound 8 µM
  relative viability: 0.685
LCLC-103H; first compound 0.08 µM
  relative viability: 1.01
LCLC-103H; first compound 0.253 µM
  relative viability: 1.02
LCLC-103H; first compound 0.8 µM
  relative viability: 1
LCLC-103H; first compound 2.53 µM
  relative viability: 1.07
LCLC-103H; first compound 8 µM
  relative viability: 1.38
HCC-15; first compound 0.08 µM
  relative viability: 0.91
HCC-15; first compound 0.253 µM
  relative viability: 0.911
HCC-15; first compound 0.8 µM
  relative viability: 0.847
HCC-15; first compound 2.53 µM
  relative viability: 0.744
HCC-15; first compound 8 µM
  relative viability: 0.796
